Results as given in ChEMBL document CHEMBL3507680, “University of Dundee, Gates Library screen for HepG2 cell viability”.

assay: Human HepG2 cell viability assay in 384 well format; assay type: toxicity, cell-based; design: dose 125 nL, time 70.5 hour; concentration not given beside the values; details: HepG2 cells, read-out: Inhibition

First: CC(C)N(Cc1ccc(C#N)cc1)C(=O)NCCNc1ncccn1
Second: CC(C)N(Cc1ccc(C#N)cc1)C(=O)Nc1ccncc1
The cytotoxicity at 70.5 h of the first is lower: -12.7% for the first, -9.08% for the second.

First: N#Cc1ccc(NC(=O)N2CCCCC2CN2CCCC2=O)cc1 (stereo unspecified)
Second: COc1ccc(NC(=O)N2CCCCC2c2ncc[nH]2)cc1 (stereo unspecified)
The cytotoxicity at 70.5 h of the first is lower: -11% for the first, -7.7% for the second.

Compared with `FC(F)(F)c1n[nH]c2c1CN(CCc1ccccn1)CC2`, `Cc1ccc(CN2CCc3onc(C(=O)Nc4cccnc4)c3C2)o1` is lower in cytotoxicity at 70.5 h: 13.8% for the first, -7.97% for the second.

First: CCSc1ccc(C(C)NC(=O)CCS(C)(=O)=O)cc1 (stereo unspecified)
Second: CS(=O)(=O)CCC(=O)NC(Cc1ccccc1)C1CC1 (stereo unspecified)
The cytotoxicity at 70.5 h of the first is lower: -9.87% for the first, -4.37% for the second.

First: CN1CCN(C2CCN(c3ccnc(-c4ccccc4)n3)CC2)C1=O
Second: CN1CCN(C(=O)C2CC=CC2)c2ccccc21
The cytotoxicity at 70.5 h of the first is lower: 6.14% for the first, 9.41% for the second.

First: CN(C)c1cc2c(nn1)CCN(C(=O)c1cc3ccccc3[nH]c1=O)C2
Second: Cc1cc(C)c(CNc2nc3ccccc3cc2CO)c(=O)[nH]1
The cytotoxicity at 70.5 h of the first is lower: -15.9% for the first, 6.72% for the second.

Going from `Cc1cccc(NC(=O)N(CCC(F)(F)F)C[C@H](O)CO)c1` to `Cc1cccc(CNC(=O)Nc2ccc3c(c2)CCCC(=O)N3)c1`, the cytotoxicity at 70.5 h rises from -5.55% to -1.4%.

First: CSCCC(C)NC(=O)N1CCSC(C)(C)C1 (stereo unspecified)
Second: COCCC(C)NC(=O)N1CCSC(C)(C)C1 (stereo unspecified)
The cytotoxicity at 70.5 h of the first is higher: 22.4% for the first, -10.1% for the second.

Going from `O=C(c1ncncc1Cl)N1CCC2(CCCC2)CC1` to `COCCN1C(=O)CC(c2cccnc2)C12CCN(C(=O)C1CC1)CC2` (stereo unspecified), the cytotoxicity at 70.5 h rises from -5.92% to -0.348%.

Compared with `Cc1nc(NC(=O)OC(C)(C)C)sc1C(=O)O`, `Cc1cc(NC(=O)N(C)C2CCCN(c3ccccc3)C2=O)n(C)n1` (stereo unspecified) is lower in cytotoxicity at 70.5 h: 21.2% for the first, -2.17% for the second.

Going from `c1nc(CSc2nnc(C3CC3)s2)cs1` to `CCc1n[nH]c(C2CN(Cc3csc(C4CCCC4)n3)CCO2)n1` (stereo unspecified), the cytotoxicity at 70.5 h rises from 1.83% to 6.69%.

First: Cc1cnc(CNS(=O)(=O)CCC2CCCO2)o1 (stereo unspecified)
Second: Cc1ccc(CN2C[C@H](NC(=O)c3nccn3C)[C@H]3OCCC[C@H]32)o1
The cytotoxicity at 70.5 h of the first is lower: -12.3% for the first, 18.3% for the second.

Going from `CSCC(C)CNC(=O)N1CCSC(C)(C)C1` (stereo unspecified) to `CCN1CC2(CC1=O)CN(C(=O)NC(C)C)CCN(C(=O)NC(C)C)C2`, the cytotoxicity at 70.5 h falls from -2.74% to -4.47%.

Going from `Cc1ccc(NC(=O)NCC(c2cnn(C)c2)N(C)C)c(C)c1` (stereo unspecified) to `CCn1nc(C)cc1C(=O)N1CCOc2cc(C)ccc21`, the cytotoxicity at 70.5 h rises from -11% to -7.11%.

Compared with `COCCc1noc(CN(C)c2nccc(C)n2)n1`, `CCc1noc(CS(=O)(=O)c2cccc(OC)c2)n1` is higher in cytotoxicity at 70.5 h: -6.87% for the first, 4.71% for the second.

Going from `O=S(=O)(NC1CCC2(CC1)OCCO2)c1cccc(Br)c1` to `O=S(=O)(NC1CCC2(CC1)OCCO2)c1ccccc1Br`, the cytotoxicity at 70.5 h falls from 12% to -1.96%.

Compared with `CC(C)c1noc(CNc2ccc(OC(F)F)cc2OC(F)F)n1`, `COc1ccc(C(C#N)NC(=O)CC2=CCCCC2)c(OC)c1` (stereo unspecified) is lower in cytotoxicity at 70.5 h: 8.88% for the first, -3.57% for the second.

Compared with `O=S(=O)(NC1CC1)c1cccc(Br)c1`, `CS(=O)(=O)NCC(=O)NC(Cc1ccccc1)C1CCCC1` (stereo unspecified) is lower in cytotoxicity at 70.5 h: 3.01% for the first, -4.4% for the second.

Compared with `O=C(Nc1ccc(-n2ccnc2)c(F)c1)C1CCN(C(=O)C2CC2)CC1`, `O=C(Nc1ccc(-n2cncn2)c(F)c1)C1CCN(C(=O)C2CC2)CC1` is higher in cytotoxicity at 70.5 h: -1.97% for the first, 1.9% for the second.

First: Cc1ccc(-c2n[nH]cc2CNCC2CCc3nnc(C)n3C2)cc1 (stereo unspecified)
Second: CNC(=O)[C@H]1C[C@@H]2CN(Cc3ccc(C)cc3)C[C@H]1O2
The cytotoxicity at 70.5 h of the first is higher: -0.696% for the first, -6.44% for the second.

Compared with `Cc1ccc(C(=O)NCCCC2(C3OCCO3)CCOCC2)cc1C`, `CCc1ccc(C(=O)NCCCC2(C3OCCO3)CCOCC2)cc1` is higher in cytotoxicity at 70.5 h: 1.93% for the first, 11.6% for the second.

Going from `Cc1cnn(CCCOc2ccc3c(c2)OCO3)c1` to `COc1cccc(C2=CCN(CCN3CCOC3=O)CC2)c1`, the cytotoxicity at 70.5 h rises from -0.603% to 11.1%.

First: CCc1nc(C2CCCN2c2ncc(C(N)=O)cc2Cl)no1 (stereo unspecified)
Second: CCc1nc(C2CCCN2c2ncc(C(F)(F)F)cc2Cl)no1 (stereo unspecified)
The cytotoxicity at 70.5 h of the first is higher: 3.61% for the first, 1.13% for the second.

Compared with `CCS(=O)(=O)NCCCNc1ncnc2cc(F)c(F)cc12`, `Cc1cc(C)c(CNc2ncnc3ccccc23)c(=O)[nH]1` is lower in cytotoxicity at 70.5 h: -0.956% for the first, -2.78% for the second.

Going from `CCc1nsc(N2CCn3c(nnc3C(F)(F)F)C2)n1` to `CCN1CCN(C)C2(CCN(C(=O)CC(F)(F)F)CC2)C1=O`, the cytotoxicity at 70.5 h falls from 2.89% to 0.29%.

Compared with `O=C(CCc1cscn1)N1CCC(C(=O)O)(c2ccccc2)CC1`, `O=C(c1cccnc1)N1CCC2(CC1)CNc1c(F)cccc12` is lower in cytotoxicity at 70.5 h: 4.76% for the first, -1.96% for the second.

Going from `CN(C)c1ccc(NC(=O)N2CCCC2c2ccsc2)cn1` (stereo unspecified) to `CN(C)c1ccc(NC(=O)N2CCCCC2c2ncc[nH]2)cn1` (stereo unspecified), the cytotoxicity at 70.5 h rises from -12.1% to 14.8%.

Going from `Cc1cc(C)c(CNc2ncnc3ccsc23)c(=O)[nH]1` to `Cc1cc(C)c(CNc2cnc3ccccc3n2)c(=O)[nH]1`, the cytotoxicity at 70.5 h rises from -9.82% to 59.4%.

First: N#Cc1ccc(OC2CCN(CC(=O)NCC(F)(F)F)CC2)cc1
Second: N#Cc1ccc(OC2CCN(C(=O)COCC3CCCO3)CC2)cc1 (stereo unspecified)
The cytotoxicity at 70.5 h of the first is lower: -12.8% for the first, -9.76% for the second.

First: N#Cc1ccc(SCCC(=O)N(Cc2cccnc2)C2CC2)cc1
Second: CO[C@@H]1CCN(C(=O)Cc2ccc(F)cc2)[C@@H]1Cc1cccnc1
The cytotoxicity at 70.5 h of the first is lower: -7.83% for the first, -3.63% for the second.

Compared with `CCCn1nccc1NC(=O)c1ccc(Cl)c(N2CCNC2=O)c1`, `CO[C@H]1CCN(C(=O)Cc2ccc(F)cc2)[C@H]1Cc1ccncc1` is lower in cytotoxicity at 70.5 h: -2.55% for the first, -8.07% for the second.

First: Cc1n[nH]c(C2CN(Cc3csc(C4CCCC4)n3)CCO2)n1 (stereo unspecified)
Second: Cc1csc([C@H]2C[C@@H]3CCN(Cc4cc(C)on4)C[C@H]3O2)n1
The cytotoxicity at 70.5 h of the first is lower: -6.59% for the first, -5.27% for the second.

Compared with `COc1cc(NC2CCCNC2)cc(OC)c1` (stereo unspecified), `CCN1C[C@H]2CCN(C(=O)Cc3cccc(OC)c3)CC[C@H]2S1(=O)=O` is lower in cytotoxicity at 70.5 h: 17.7% for the first, -8.13% for the second.

Compared with `CS(=O)(=O)c1nccn1CCOc1ccccc1F`, `COCC1c2nnn(C)c2CCN1C(=O)COc1ccccc1OC` (stereo unspecified) is lower in cytotoxicity at 70.5 h: 13.8% for the first, 1.52% for the second.

Going from `CS(=O)(=O)N1CCO[C@@H]2CN(C(=O)N3CCCC3)CC[C@@H]2C1` to `COC[C@@]12CCC[C@@H]1CN(C(=O)N1CCCC1)C2`, the cytotoxicity at 70.5 h rises from -8.13% to -6.53%.

Going from `CN(C)C(=O)CN1CCO[C@H]2CN(Cc3ccoc3)C[C@H]21` to `Cn1ccnc1C(=O)N[C@@H]1CN(Cc2ccoc2)[C@@H]2CCCO[C@@H]21`, the cytotoxicity at 70.5 h rises from -4.25% to -2.77%.

First: CC(C)NC(=O)C1CN(C(=O)N(C)C)CC12CCOCC2 (stereo unspecified)
Second: CC(C)CN1CCC2(C=C(C(=O)N(C)C)c3ccccc32)CC1
The cytotoxicity at 70.5 h of the first is lower: -3.34% for the first, -2.19% for the second.

Going from `Cc1ccc(CNCC2Cn3nncc3CO2)o1` (stereo unspecified) to `c1coc(CNCC2Cn3nncc3CO2)c1` (stereo unspecified), the cytotoxicity at 70.5 h falls from -3.52% to -8.73%.

Going from `Cc1nnc([C@@]23CCO[C@@H]2CCN(S(=O)(=O)c2cccnc2)C3)o1` to `Cc1nnc([C@]23COC[C@H]2CN(S(=O)(=O)c2cccnc2)C3)o1`, the cytotoxicity at 70.5 h rises from -5.15% to -5.13%.

Going from `COCC1CC2(CCN(Cc3ccoc3)CC2)CN1Cc1ccccn1` (stereo unspecified) to `COCC1CC2(CCN(CC3CC3)CC2)CN1Cc1ccccn1` (stereo unspecified), the cytotoxicity at 70.5 h falls from 16.1% to -2.19%.

First: CN(C)C(=O)NCC1CC2(CO1)CN(c1nncs1)C2 (stereo unspecified)
Second: CCc1ncnc2c1CCN(CC(=O)N(C)C)CC2
The cytotoxicity at 70.5 h of the first is higher: 1.71% for the first, -1.77% for the second.

First: CN1CCC2(C=C(C(=O)N(C)C)c3ccccc32)CC1
Second: CCN1CCC2(C=C(C(=O)N(C)C)c3ccccc32)CC1
The cytotoxicity at 70.5 h of the first is higher: 2.91% for the first, 0.372% for the second.

Going from `COCC1c2nnn(C)c2CCN1C(=O)c1ccc(OC)c(F)c1` (stereo unspecified) to `COCC1c2nnn(C)c2CCN1C(=O)CCc1cccc(OC)c1` (stereo unspecified), the cytotoxicity at 70.5 h rises from -7.3% to -3.47%.

Compared with `Cc1nc(COC[C@@]23CCC[C@@H]2CN(Cc2cnn(C)c2)C3)cs1`, `Cn1cc(CN2C[C@H]3CCC[C@@]3(COCC3CC3)C2)cn1` is higher in cytotoxicity at 70.5 h: -5% for the first, -1.1% for the second.

Going from `CN1CCN(C)C2(CCN(C(=O)CC(F)(F)F)CC2)C1=O` to `C[C@H]1CN(C(=O)c2cccnc2)C[C@@]12CCN(CCN1CCCC1)C2=O`, the cytotoxicity at 70.5 h falls from 0.213% to -6.14%.

Going from `c1cncc(N2CCCn3nnc(CN4CCOCC4)c3C2)c1` to `Fc1cnc(N2CCCC3(CN(Cc4cccs4)CCO3)C2)nc1` (stereo unspecified), the cytotoxicity at 70.5 h rises from -5% to 2.35%.

First: CCn1nc(C)cc1C(=O)N1C[C@@H]2C[C@@H](c3nc(C)cs3)O[C@@H]2C1
Second: Cc1csc([C@H]2C[C@H]3CN(Cc4cc(C)on4)CC[C@@H]3O2)n1
The cytotoxicity at 70.5 h of the first is higher: -2.46% for the first, -7.64% for the second.

Going from `COC[C@@]12CCC[C@@H]1CN(C(=O)COC1CCCC1)C2` to `O=C(C[C@@H]1COC[C@H]2CN(C3CCCC3)C[C@@H]12)NCc1cccnc1`, the cytotoxicity at 70.5 h falls from -6.5% to -8.82%.

Going from `Cn1ccnc1CN1CCC2(COCCN(S(=O)(=O)C3CC3)C2)C1` (stereo unspecified) to `Cn1ccnc1CN1CCC2(CC1)COCCN(S(C)(=O)=O)C2`, the cytotoxicity at 70.5 h rises from -10.6% to -7.67%.

First: CS(=O)(=O)N1CCCC12CCN(Cc1ccoc1)CC2
Second: CC(C)CNC(=O)C1=NOC2(CCN(Cc3ccoc3)C2)C1 (stereo unspecified)
The cytotoxicity at 70.5 h of the first is lower: -3.22% for the first, -0.398% for the second.

Going from `c1ccc2c(c1)C(NC1CCCC1)CC21CCNCC1` (stereo unspecified) to `Cc1ccc2c(c1)C1(CCNCC1)CC2NCCO` (stereo unspecified), the cytotoxicity at 70.5 h falls from -1.32% to -1.58%.

Compared with `Cn1ccnc1C(=O)N[C@@H]1CN(CC2CCOCC2)[C@@H]2CCCO[C@@H]21`, `O=C(C[C@@H]1COC[C@H]2CN(CC3CC3)C[C@@H]12)NCc1cccnc1` is lower in cytotoxicity at 70.5 h: -2.65% for the first, -11.6% for the second.

Going from `O=C(c1ccccc1F)N1CCC2(CC1)CC(N1CCCC1)CO2` (stereo unspecified) to `Fc1cnc(N2CCC3(CC2)CN(Cc2cccs2)CCO3)nc1`, the cytotoxicity at 70.5 h rises from -7.88% to -6.3%.

First: CNC(=O)[C@H]1C[C@@H]2CN(Cc3ccc(OC)cc3)C[C@H]1O2
Second: CNC(=O)[C@H]1C[C@@H]2CN(Cc3ccccc3)C[C@H]1O2
The cytotoxicity at 70.5 h of the first is higher: -4.08% for the first, -5.88% for the second.

First: Cc1ccc(CN2CCc3onc(C(=O)N4CCCC4)c3C2)o1
Second: Cc1cccc(CN2CC[C@H]3OCC[C@@]3(C(=O)N3CCCO3)C2)n1
The cytotoxicity at 70.5 h of the first is lower: -6.06% for the first, -2.84% for the second.

Compound `c1cncc(CN2CCN3C[C@H](Oc4cncnc4)C[C@H]3C2)c1` has a cytotoxicity at 70.5 h of -5.49%.
